# Legend:
# healthy volunteers = conditions: single oral dose, interim analysis; cited from earlier work
# [1] = system: patients with major depressive disorder; assay: MADRS assessment, NCT04673383 Part B, IV infusion over about 10 minutes; assay type: in vivo, human; parameters: average percent reduction from baseline (MADRS) / Mean % reduction (MADRS): concentration or dose not given beside the values
# Text: Therapeutic benefit or efficacy may be assessed using a rating scale. For patients with a depressive disorder such as MDD or TRD, the Montgomery-Asberg Depression Rating Scale (MADRS), the Hamilton Depression Rating Scale (HAMD-17) or the Beck's Depression Inventory (BDI-II) may be used. The rating scale is used prior to administration of the psychedelic agent, to provide a baseline assessment, and again after administration of the psychedelic agent.
# (§1) A double-blind, randomised, placebo-controlled study of intravenous doses of DMT fumarate, was carried out in patients with major depressive disorder, MDD, (ClinicalTrials.gov Identifier: NCT04673383, Part B). The protocol comprised the steps of:
# • MADRS assessment by an independent assessor
# (§2) • Administration of either a placebo or a dose of DMT fumarate by continuous intravenous infusion over a dosing period of about 10 minutes. • Tolerability assessment following cessation of the psychedelic experience. Study Day 8 (±1 day), Study Day 15 (±1 day) • MADRS assessment
# • Administration of a dose of DMT fumarate by continuous intravenous infusion over a dosing period of about 10 minutes. • Tolerability assessment following cessation of the psychedelic experience. Study Day 22 (+1 day), Study Day 29 (+2 days), Day 45 (+2 days), Day 105 (+2 days) • MADRS assessment
# The administration of the study drug, DMT fumarate, in NCT04673383, Part B was in accordance with the present invention. Group A received one dose of active (DMT fumarate) on Day 1 and were assessed using MADRS at Day 8 and Day 15. Group P received a placebo on Day 1, and were also assessed at Day 8 and Day 15. This comprised the blinded phase of the study. Group P subsequently received one dose of active in the open label phase of the study on Day 15 and were assessed at Day 22 and 29. Data from this group following administration of the active dose is represented as PA.
# As described above, Group A received one dose of active (DMT fumarate) on Day 1 and were assessed at Day 8 and Day 15. Group P received a placebo on Day 1, and were also assessed at Day 8 and Day 15.
# [2] = system: patients with major depressive disorder; assay: Beck Depression Inventory (BDI), NCT04673383 Part B; assay type: in vivo, human
# Experimental: as §1
# (§3) • Administration of either a placebo or a dose of DMT fumarate by continuous intravenous infusion over a dosing period of about 10 minutes. • Tolerability assessment following cessation of the psychedelic experience. Study Day 8 (±1 day), Study Day 15 (±1 day) • MADRS assessment […]
# (§4) The administration of the study drug, DMT fumarate, in NCT04673383, Part B was in accordance with the present invention. Group A received one dose of active (DMT fumarate) on Day 1 and were assessed using MADRS at Day 8 and Day 15. Group P received a placebo on Day 1, and were also assessed at Day 8 and Day 15. […] Group P subsequently received one dose of active in the open label phase of the study on Day 15 and were assessed at Day 22 and 29. […]
# Analysis of patient-reported depression scores corroborated the MADRS assessments conducted by independent clinical raters. Improvements in depression scores from baseline were observed across all study timepoints in patients receiving at least one dose of active, as measured by the Beck Depression Inventory (“BDI”). […]
# [3] = system: patients with major depressive disorder; assay: State-Trait Anxiety Inventory-Trait (STAI-T), NCT04673383 Part B; assay type: in vivo, human
# Experimental: as §1, §2
# • Administration of a dose of DMT fumarate by continuous intravenous infusion over a dosing period of about 10 minutes. • Tolerability assessment following cessation of the psychedelic experience. […]
# as §4
# Measures assessing patients' anxiety and wellbeing, areas which are often negatively impacted by depression, were also analysed across the study. […]
# [4] = system: patients with major depressive disorder; assay: Warwick-Edinburgh Mental Wellbeing Scale (WEMWBS), NCT04673383 Part B; assay type: in vivo, human
# Experimental: as §1, §3, §4
# Further, a rapid and sustained improvement in wellbeing was observed following administration of at least one dose of DMT fumarate in accordance with the invention, with supportive therapy, as measured by the Warwick-Edinburgh Mental Wellbeing Scale (“WEMWBS”).
# healthy adults [5] = assay: Tolerability question after psychedelic experience, NCT04673383 Part A; assay type: in vivo, human; conditions: all healthy volunteers, highest doses tested
# Text: Tolerability may be assessed following cessation of the subjective psychedelic experience by asking the patent the question ‘Do you wish you had not gone through that experience?’ Yes responses are deemed to indicate poor tolerability, while No responses are deemed to indicate good tolerability.
# All patient participants in this study, after receiving one dose of DMT fumarate, answered NO to the question ‘Do you wish you had not gone through that experience?’, indicating good tolerability of the psychedelic agent. In Part A of the same study, healthy adults received single escalating doses of DMT fumarate. All healthy volunteers answered “no” to the same question at the highest doses tested.
# healthy adults [6] = assay: Challenging Experience Questionnaire (CEQ), NCT04673383 Part A; assay type: in vivo, human; conditions: active group, healthy participants
# Text: Garcia-Romeu and Richards (International review of Psychiatry, Vol. 30, 2018, issue 4, pp 291-316) discuss the use of serotonergic hallucinogens in clinical interventions and state ‘issues, such as recent suicidality, drug or alcohol use disorders, dissociative disorders, and past history of trauma should be taken into account depending on the therapeutic target, as these may be exacerbated by high-dose psychedelic administration or increase risk for adverse events. ‘They further state: Psychodynamic-autobiographical experiences are predominated by emotional recollections and reflections on significant previous or current life events and relationships. […] A patient's subjective experience may be evaluated by the Challenging Experience Questionnaire (CEQ), a questionnaire designed to measure challenging psychological experiences associated with a psychedelic experience. […]
# The participant's experience was evaluated using the Challenging Experience Questionnaire (CEQ). In Part A of the study, a mean CEQ score of 0.172 was recorded for the active group, compared with a mean of 0.052 for the placebo group. […]
# [7] = system: patients with major depressive disorder; assay: Challenging Experience Questionnaire (CEQ), NCT04673383 Part B; assay type: in vivo, human
# Text: Garcia-Romeu and Richards (International review of Psychiatry, Vol. 30, 2018, issue 4, pp 291-316) discuss the use of serotonergic hallucinogens in clinical interventions and state ‘issues, such as recent suicidality, drug or alcohol use disorders, dissociative disorders, and past history of trauma should be taken into account depending on the therapeutic target, as these may be exacerbated by high-dose psychedelic administration or increase risk for adverse events. ‘They further state: Psychodynamic-autobiographical experiences are predominated by emotional recollections and reflections on significant previous or current life events and relationships. […] A patient's subjective experience may be evaluated by the Challenging Experience Questionnaire (CEQ), a questionnaire designed to measure challenging psychological experiences associated with a psychedelic experience.
# as §4
# [8] = Drug related serious adverse events, NCT04673383; assay type: in vivo, human; conditions: reported at the date of filing
# Experimental: A double-blind, randomised, placebo-controlled study of intravenous doses of DMT fumarate, was carried out in patients with major depressive disorder, MDD, (ClinicalTrials.gov Identifier: NCT04673383, Part B).
# [9] = system: patients with major depressive disorder; assay: D'Souza et al. HAMD-17 scores; assay type: in vivo, human; conditions: 1 day after final administration of 0.1 and 0.3 mg/kg doses
# Experimental: D'Souza et al report an ‘exploratory study of the dose-related safety, tolerability, and efficacy of dimethyltryptamine (DMT) in healthy volunteers and major depressive disorder’ (D. C. D'Souza, S. A. Syed, L. T. Flynn, H. Safi-Aghdam, N. V. Cozzi and M. Ranganathan, Neuropsychopharmacology (2022) 47:1854-1862). Seven patients with major depressive disorder received two doses of DMT hemifumarate (0.1 mg/kg, followed by 0.3 mg/kg) at least 48 hours apart. The participants were administered DMT by intravenous push over 30-60 seconds, i.e., a bolus injection.
# D'Souza et al report that the mean change in HAMD-17 scores between baseline (7 subjects) and 1 day after final administration of both a 0.1 mg/kg and a 0.3 mg/kg dose (6 subjects) was −4.5 (Table S6). This improvement approximates to an improvement on the MADRS scale of −3.9.
# healthy participants = assay: Perceived duration of the psychedelic experience; assay type: in vivo, human; conditions: 9 mg IV
# Text: The onset and cessation of the psychedelic experience may be assessed by the attending clinician, psychiatrist or therapist. ‘Duration of the psychedelic experience’ as used herein refers to the time from the start of the continuous parenteral administration to the cessation of the psychedelic experience. The duration of the psychedelic experience may vary between patients. The term ‘duration’ as used herein, encompasses the mean duration of the psychedelic experience.
# The safety and tolerability of a single intravenous dose of a deuterated analogue of DMT is being investigated in healthy participants in an on-going clinical trial. The administration of the deuterated analogue of DMT is in accordance with the present invention. Tolerability is assessed post-psychedelic experience by the question ‘Do you wish you had not gone through that experience?’.
# A 9 mg dose of the deuterated analogue was administered in accordance with the present invention to a cohort of 6 psychedelic-experienced healthy participants. Preliminary data were compared with pharmacokinetic data from Part A of NCT04673383, Cohort 1 (9 mg DMT fumarate).
# IRVAS is a rating scale which measures the intensity of the psychedelic experience. Additionally, the perceived duration of the psychedelic experience was in the range 37-57 minutes for the deuterated analogue, compared with approximately 25 minutes for DMT.
# [10] = system: patients with major depressive disorder; conditions: baseline (7 subjects) vs 1 day after final administration of 0.1 mg/kg and 0.3 mg/kg doses (6 subjects); cited from earlier work
# [11] = system: healthy volunteer participants; conditions: all three healthy volunteers, 0.3 mg/kg, IV bolus; cited from earlier work
# [12] = system: 3 healthy volunteers and 6 patients; conditions: 0.3 mg/kg, IV bolus; cited from earlier work
# [13] = Group PA, 2 weeks, study Day 29
# [14] = day 8, blinded data for all patients (average of placebo and DMT fumarate patients)
# [15] = Group PA, open label phase, Day 105
smiles,measurement,setting,value
[2H]C([2H])([2H])N(C([2H])([2H])[2H])C([2H])([2H])C([2H])([2H])c1c[nH]c2cccc(O)c12 [CYB003],average duration of peak effects,healthy volunteers,≈ 2 hours
same,time to psychedelic effects,healthy volunteers,≤ 15 min
"CN(C)CCc1c[nH]c2ccccc12.O=C(O)/C=C/C(=O)O [DMT fumarate, N,N-dimethyltryptamine fumarate]",difference in mean change from baseline (MADRS) between Group A and Group P,"[1]; Day 8, active vs placebo, p=0.002",−10.8 points
same,difference in mean change from baseline (MADRS) between Group A and Group P,"[1]; Day 15, active vs placebo, p=0.02",−7.4 points
same,Mean change from baseline (MADRS),"[1]; Group A, 1 week from active dose, study Day 8",−12.7
same,% of subjects with a MADRS score ≤ 10,"[1]; Group A, 1 week, study Day 8",43.8%
same,% of subjects with ≥ 50% reduction from BL (MADRS),"[1]; Group A, 1 week, study Day 8",43.8%
same,Mean % reduction (MADRS),"[1]; Group A, 1 week, study Day 8",−48.2%
same,Mean change from baseline (MADRS),"[1]; Group A, 2 weeks from active dose, study Day 15",−11.0
same,% of subjects with a MADRS score ≤ 10,"[1]; Group A, 2 weeks, study Day 15",29.4%
same,% of subjects with ≥ 50% reduction from BL (MADRS),"[1]; Group A, 2 weeks, study Day 15",35.3%
same,Mean % reduction (MADRS),"[1]; Group A, 2 weeks, study Day 15",−41.0%
same,Mean change from baseline (MADRS),"[1]; Group PA (open label active after placebo), 1 week from active dose, study Day 22",−10.6
same,% of subjects with a MADRS score ≤ 10,"[1]; Group PA, 1 week, study Day 22",42.9%
same,% of subjects with ≥ 50% reduction from BL (MADRS),"[1]; Group PA, 1 week, study Day 22",42.9%
same,Mean % reduction (MADRS),"[1]; Group PA, 1 week, study Day 22",−40.6%
same,Mean change from baseline (MADRS),"[1]; Group PA, 2 weeks from active dose, study Day 29",−10.8
same,% of subjects with a MADRS score ≤ 10,[1]; [13],31.3%
same,% of subjects with ≥ 50% reduction from BL (MADRS),[1]; [13],43.8%
same,Mean % reduction (MADRS),[1]; [13],−36.7%
same,"difference in mean total MADRS score, statistical analysis","[1]; Group PA, all open-label study timepoints, p<0.05",statistically significant difference
same,average improvement on the MADRS score,[1]; [14],−7.5
same,average percent reduction from baseline (MADRS),[1]; [14],−18.4%
same,Self-Reported Depression (BDI CFB),"[2]; Active, blinded phase, Day 15, p = 0.002 active vs. placebo",−17.4
same,Self-Reported Depression (BDI CFB),[2]; [15],−19.7
same,Anxiety (STAI-T CFB),"[3]; Active, blinded phase, Day 15, p = 0.03 active vs. placebo",−11.0
same,Anxiety (STAI-T CFB),"[3]; Group PA, open label phase, Day 105 (12-weeks following the open label dose)",−14.2
same,Wellbeing (WEMWBS CFB),"[4]; Active, blinded phase, Day 15 (two-weeks following blinded dose)",10.1
same,Wellbeing (WEMWBS CFB),[4]; [15],9.8
same,answer to 'Do you wish you had not gone through that experience?' (tolerability),healthy adults [5],no
same,mean CEQ score,healthy adults [6],0.172
same,mean CEQ score,[7]; Group A,0.360
same,mean CEQ score,[7]; Group PA,0.350
same,drug related serious adverse events,[8],no drug related serious adverse events
"CN(C)CCc1c[nH]c2ccccc12 [DMT, 2-(1H-indol-3-yl)-N,N-dimethylethanamine]",improvement on the MADRS scale approximated from HAMD-17 change,[9],~−3.9
same,perceived duration of the psychedelic experience,healthy participants,approximately 25 minutes
same,mean change in HAMD-17 scores,[10],−4.5
same,"tolerability score (0-100, 0=intolerable, 100=well tolerated)",[11],greater than 70
same,mean score to 'how likely are you to use this drug?' (scale 0 to 100),[12],22.44
